The results in this text go back to patent publication US12084458B2, “Substituted pyridines, pyridazines, and pyrimidines as TYK2 inhibitors” (Sudo Biosciences Limited, priority 2021, dated 2024).

The target of one experiment is T1, JAK1 kinase domain (JH1) (Homo sapiens, UniProt P23458).
T1 construct: recombinant purified His or GST-tagged catalytic domain for each enzyme; made in house
Nature of the experiment: HTRF-based selectivity assay, JAK1 catalytic domain. It is filed as biochemical. Conditions: recombinant catalytic domain, ATP 21.43 μM. As to the method: (§1) Example B-2: HTRF-Based Selectivity Assay
(§2) The ability of compounds to inhibit the activity of JAK1, JAK2, JAK3 and TYK2 is measured using a recombinant purified His or GST-tagged catalytic domain for each enzyme (JAK1, JAK2 and TYK2 are generated in-house; JAK3 was purchased from Carna biosciences, Cat #08-046) in an HTRF format biochemical assay. The reactions employs a commercial peptide substrate from Cisbio (Cat #62TK0PEC). The basic assay protocol is as follows: first, 2.5 μL of diluted compounds (4×) in DMSO are dispensed into a 384-well Optiplate. Next, 2.5 μL of enzyme (final concentrations for enzymes are: TYK2—700 ng/mL, JAK1—80.6 ng/mL, JAK2—2.1 ng/mL and JAK3—171.8 ng/mL) is added and incubated at RT for 5-20 min. Finally, 5 μl of mixture of 2× ATP [Final concentration 20 μM for TYK2, 21.43 μM for JAK1, 14.7 μM for JAK2 and 2.12 μM for JAK3]+2× Substrate [Final concentration 217 nM for TYK2, 454.7 nM for JAK1, 200 nM for JAK2 and 257.4 nM for JAK3] is added to 384 well Optiplate. Composition of Kinase assay buffer used in the assay is as follows: HEPES 50 mM, EGTA 1 mM, MgCl2 10 mM, DTT 2 mM, Tween-20 0.01% and water. Then the plates are shaken and then incubated at 26.5° C. for 60 min.
For orientation: In TR-FRET formats the signal depends on donor and acceptor labels being close together.

In the next experiment the target is T2, JAK3 kinase domain (JH1) (Homo sapiens, UniProt P52333).
T2 construct: recombinant purified His or GST-tagged catalytic domain for each enzyme; purchased Carna biosciences 08-046
T2 sequence (P52333 822-1111 limits assumed): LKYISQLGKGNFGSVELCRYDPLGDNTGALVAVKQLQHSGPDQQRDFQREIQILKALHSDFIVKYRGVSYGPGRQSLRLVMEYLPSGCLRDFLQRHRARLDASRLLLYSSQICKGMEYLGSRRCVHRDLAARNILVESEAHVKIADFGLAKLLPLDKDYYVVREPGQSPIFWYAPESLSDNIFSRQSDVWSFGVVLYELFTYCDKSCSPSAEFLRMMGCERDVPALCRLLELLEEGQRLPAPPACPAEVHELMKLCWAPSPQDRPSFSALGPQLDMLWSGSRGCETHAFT
The experiment in a line: HTRF-based selectivity assay, JAK3 catalytic domain. It is filed as biochemical. Conditions: recombinant catalytic domain, ATP 2.12 μM. On the procedure:
as §1, §2

Experiment [1] has as its system HEK-Blue IFNα/β cells (IFNα-stimulated STAT1 SEAP reporter; TYK2 JH2). Nature of the experiment: HEK-Blue IFNα/β SEAP reporter assay for profiling TYK2 pseudokinase (JH2) inhibition. The settings on record: Homo sapiens, HEK-Blue, 1 ng/mL human recombinant IFNα, read-out: IFNα (TYK2 inhibitory activity, IC50). In kind it is cell-based. The essentials: (§3)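 Reporter cells were seeded in DMEM/10% heat-inactivated FBS and cultured 20-22 h at 37 °C. Compounds, serially diluted, were applied for 60 min before human recombinant IL-23 (10 ng/mL, 22-24 h) or IFNα (1 ng/mL, 16-18 h) was added. Secreted alkaline phosphatase was then quantified with QUANTI-Blue.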
For orientation: Reporter assays use an easily measured gene product as a stand-in for the process of interest.

Experiment [2] concerns HEK-Blue IFNγ reporter cells (IFNγ-stimulated STAT1 SEAP reporter). The experiment in a line: HEK-Blue IFNγ SEAP reporter assay for determining selectivity. It is filed as cell-based. Conditions: Homo sapiens, HEK-Blue, 50 ng/mL human recombinant IFNγ, read-out: IFN-γ (SEAP selectivity, IC50). The procedure, abridged:
(§4)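 Cells were plated for 20-22 h, then pretreated with serially diluted compound for 60 min. They were stimulated for 24 h with 4 ng/mL human recombinant IL-2 or 50 ng/mL human recombinant IFNγ, and SEAP induction was read with QUANTI-Blue.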

Experiment [3] has as its system HEK-Blue IL-2 reporter cells (IL-2-stimulated STAT5 SEAP reporter). Nature of the experiment: HEK-Blue IL-2 SEAP reporter assay for determining selectivity. It is filed as cell-based. Conditions: 4 ng/mL human recombinant IL-2. The essentials: as §4
Experiment [4] concerns HEK-Blue IL-23 cells (IL-23-stimulated STAT3 SEAP reporter; TYK2 JH2). Nature of the experiment: HEK-Blue IL-23 SEAP reporter assay for profiling TYK2 pseudokinase (JH2) inhibition. It is filed as cell-based. The settings on record: 10 ng/mL human recombinant IL-23, SEAP reporter, read-out: IL23 (TYK2 inhibitory activity, IC50). The essentials: as §3
The target in the next experiment is T3, JAK2 kinase domain (JH1) (Homo sapiens, UniProt O60674).
T3 construct: recombinant purified His or GST-tagged catalytic domain for each enzyme; made in house
T3 sequence (O60674 849-1124 limits assumed): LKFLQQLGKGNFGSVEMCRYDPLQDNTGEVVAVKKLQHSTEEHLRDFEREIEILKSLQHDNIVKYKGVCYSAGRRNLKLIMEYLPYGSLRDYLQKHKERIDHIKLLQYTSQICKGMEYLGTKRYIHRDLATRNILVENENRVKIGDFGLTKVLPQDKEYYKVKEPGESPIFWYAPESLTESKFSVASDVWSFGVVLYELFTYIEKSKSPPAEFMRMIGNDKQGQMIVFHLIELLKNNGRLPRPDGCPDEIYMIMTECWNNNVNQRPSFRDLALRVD
The experiment in a line: HTRF-based selectivity assay, JAK2 catalytic domain. Conditions: recombinant catalytic domain, ATP 14.7 μM. It is filed as biochemical. On the procedure: as §1, §2

Another experiment deals with T4, TYK2 kinase domain (JH1) (Homo sapiens, UniProt P29597).
T4 construct: recombinant purified His or GST-tagged catalytic domain for each enzyme; made in house
T4 sequence (P29597 897-1176 limits assumed): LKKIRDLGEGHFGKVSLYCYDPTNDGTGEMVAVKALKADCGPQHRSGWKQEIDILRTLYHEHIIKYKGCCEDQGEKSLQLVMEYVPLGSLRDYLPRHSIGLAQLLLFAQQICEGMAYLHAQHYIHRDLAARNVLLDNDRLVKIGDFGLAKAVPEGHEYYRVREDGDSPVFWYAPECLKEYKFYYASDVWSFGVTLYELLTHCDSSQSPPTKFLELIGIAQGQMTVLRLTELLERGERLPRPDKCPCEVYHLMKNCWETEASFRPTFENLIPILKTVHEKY
Nature of the experiment: HTRF-based selectivity assay, TYK2 catalytic domain. It is filed as biochemical. Conditions: recombinant catalytic domain, ATP 20 μM. On the procedure: as §1, §2

T1 sequence (P23458 875-1153 limits assumed): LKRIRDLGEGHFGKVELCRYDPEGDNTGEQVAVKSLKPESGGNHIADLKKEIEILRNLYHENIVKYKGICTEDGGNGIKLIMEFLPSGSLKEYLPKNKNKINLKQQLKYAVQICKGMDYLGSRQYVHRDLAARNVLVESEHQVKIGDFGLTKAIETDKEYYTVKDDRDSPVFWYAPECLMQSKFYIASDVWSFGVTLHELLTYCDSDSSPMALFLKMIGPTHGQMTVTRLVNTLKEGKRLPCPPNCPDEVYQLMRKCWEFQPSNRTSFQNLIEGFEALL

The term IC50 denotes the midpoint of a concentration-inhibition curve. Regarding `[2H]C([2H])([2H])NC(=O)c1cnc(Nc2cc(C)nc(C)n2)cc1Nc1cccc2c1N(C)CCn1cnnc1-2` [Compound 80, 6-((2,6-dimethylpyrimidin-4-yl)amino)-N-(methyl-d3)-4-((7-methyl-6,7-dihydro-5H-benzo[f][1,2,4]triazolo[4,3-d][1,4]diazepin-8-yl)amino)nicotinamide], the IC50 on JAK1 kinase domain (JH1) was more than 1000 nM; on JAK3 kinase domain (JH1), more than 1000 nM; in experiment [1], 30 to 300 nM; in experiment [2], more than 1000 nM; in experiment [3] it was more than 1000 nM; in experiment [4], 30 to 300 nM. Further, the IC50 on JAK2 kinase domain (JH1) was 30 to 300 nM; at TYK2 kinase domain (JH1), more than 1000 nM.
On to `CNC(=O)c1nnc(Nc2ccc(F)cn2)cc1Nc1cccc2c1N(C)CCn1cnnc1-2` [Compound 76, 6-((5-fluoropyridin-2-yl)amino)-N-methyl-4-((7-methyl-6,7-dihydro-5H-benzo[f][1,2,4]triazolo[4,3-d][1,4]diazepin-8-yl)amino)pyridazine-3-carboxamide], for which the IC50 was more than 1000 nM at JAK1 kinase domain (JH1); 300 to 1000 nM on JAK3 kinase domain (JH1); 30 to 300 nM in experiment [1]; 300 to 1000 nM in experiment [2]; more than 1000 nM in experiment [3]; less than 30 nM in experiment [4]. Also, the IC50 is 300 to 1000 nM at JAK2 kinase domain (JH1) and more than 1000 nM at TYK2 kinase domain (JH1).
As for `[2H]C([2H])([2H])NC(=O)c1cnc(NC(=O)C2CC2)cc1Nc1cccc2c1N(C)Cc1ncnn1-2` [Compound 6, 6-(cyclopropanecarboxamido)-N-(methyl-d3)-4-((5-methyl-4,5-dihydro-[1,2,4]triazolo[1,5-a]quinoxalin-6-yl)amino)nicotinamide], the IC50 at JAK1 kinase domain (JH1) is more than 1000 nM; on JAK3 kinase domain (JH1), more than 1000 nM; in experiment [1], less than 30 nM; in experiment [2], 300 to 1000 nM; in experiment [3], more than 1000 nM; in experiment [4] it was less than 30 nM. The half-maximal inhibitory concentration (IC50) at JAK2 kinase domain (JH1) and at TYK2 kinase domain (JH1) was more than 1000 nM in each case.
As to `[2H]C([2H])([2H])NC(=O)c1nnc(NC(=O)C2CC2)cc1Nc1cccc2c1N(C)Cc1nc(C)nn1-2` [Compound 5, 6-(cyclopropanecarboxamido)-4-((2,5-dimethyl-4,5-dihydro-[1,2,4]triazolo[1,5-a]quinoxalin-6-yl)amino)-N-(methyl-d3)pyridazine-3-carboxamide], the half-maximal inhibitory concentration (IC50) on JAK1 kinase domain (JH1) is more than 1000 nM; on JAK3 kinase domain (JH1), more than 1000 nM; in experiment [1], less than 30 nM; in experiment [2], 30 to 300 nM; in experiment [3], more than 1000 nM; in experiment [4], less than 30 nM. In addition, the IC50 on JAK2 kinase domain (JH1) and at TYK2 kinase domain (JH1) was more than 1000 nM in each case.
Consider `CNC(=O)c1nnc(NC(=O)C2CC2)cc1Nc1cccc2c1N(C)CCn1cnnc1-2` [Compound 77, 6-(cyclopropanecarboxamido)-N-methyl-4-((7-methyl-6,7-dihydro-5H-benzo[f][1,2,4]triazolo[4,3-d][1,4]diazepin-8-yl)amino)pyridazine-3-carboxamide], for which the IC50 on JAK1 kinase domain (JH1) was more than 1000 nM; at JAK3 kinase domain (JH1), 300 to 1000 nM; in experiment [1] it was 30 to 300 nM; in experiment [2], 300 to 1000 nM; in experiment [3], more than 1000 nM; in experiment [4] it was less than 30 nM. Further, the IC50 is 30 to 300 nM at JAK2 kinase domain (JH1) and more than 1000 nM at TYK2 kinase domain (JH1).
